Results reported in publication PMC10937676, “Targeting the NTSR2/TrkB oncogenic pathway in chronic lymphocytic leukemia” (Scientific Reports, 2024).

Experiments:
[1] = target: NTSR2/TRKB interaction (Homo sapiens, UniProt Q16620); experiment: Proximity ligation assay (PLA) for NTSR2 and TRKB in CLL-B cells; assay type: cell-based; parameters: endogenous in cells; host or cells: primary CLL-B cells from three CLL patients; details: CLL-B cells from three CLL patients, 10 µM overnight; compared with TAT alone or untreated; spots counted in 50 cells
Description: Nuclei were stained with DAPI (blue). […] (C) Representative immunoblot of 3 independent experiments. […] Nuclei were stained with DAPI (blue). Magnification × 40.
In a second approach, we investigated the inhibition of the NTSR2/TRKB interaction in CLL-B cells from three CLL patients using PLA on NTSR2 and TRKB. The leukemic B cells were either treated with the TAT-Pep peptide, TAT alone, or left untreated, and then the proximity ligation assay was performed (Fig. 4E,F).
Cells were fixed with methanol at − 20 °C for 10 min and then the Duolink kit (Sigma) was used to perform the PLA according to the manufacturer’s instructions. Before observation, cells were mounted on glass slides with DAPI-containing mounting medium and results were observed by confocal microscopy (LSM880, Zeiss) and analyzed using the Fiji software (ImageJ).

[2] = system: BCL-2; experiment: Immunoblot, relative level of anti-apoptotic protein BCL-2 in CLL-B cells; assay type: cell-based, human; details: CLL-B cells from 10 patients, overnight, 10 µM
Source text: Concerning anti-apoptotic protein expression, a decrease in anti-apoptotic proteins BCL-2; BCL-XL and MCL-1 was observed after TAT-Pep treatment of CLL-B cells, possibly as a consequence of the SRC kinase inactivation (Fig. 6A–C). To unveil whether the regulation mechanism behind the observed modifications was transcriptional or post-transcriptional, we evaluated the mRNA levels of all three anti-apoptotic proteins following peptide treatment. […] To further underline that the induction of cell death following TAT-Pep treatment involved apoptosis regulation pathways, we used B cells from six CLL patients and stained them with Annexin V in both TAT-Pep treated and untreated conditions. […]
Figure 6 The peptide lowers anti-apoptotic proteins levels. […] CLL-B cells from 12 patients were incubated overnight, with or without 10 µM of TAT-Pep, subsequently RNA was extracted from cell lysates and mRNA levels of BCL-2 (D); BCL-XL (E) and MCL-1 (F) were evaluated using RTqPCR; 18S was used as a housekeeping gene. (G) Increased concentrations (0 to 30 µM) of TAT-Pep were incubated with 20,000 CLL-B, and the number of Annexin V-positive cells was measured using the Incucyte live-cell imaging device. Fluorescence was monitored for 48 h. […] The ‘Green Object Count/Phase Object Count’ ratio was determined using the Incucyte analysis software to obtain the percentage of apoptotic cells. […]

[3] = system: MEC-1 cell line; experiment: Cytotoxicity on the MEC-1 cell line (Incucyte, Cytotox Dye); assay type: cell-based; details: 0 to 100 µM peptide, fluorescence monitored for 24 h, read-out: IC50, cell death
Description: The cytotoxicity of the peptides was initially assessed on the MEC-1 cell line to determine their IC50.
Figure 3 Cytotoxicity of the peptide in vitro and ex vivo. (A) Determination of the cytotoxicity of Pep and TAT-Pep peptides on the MEC-1 cell line. Increased concentrations (0 to 100 µM) of Pep and TAT-Pep were incubated with the MEC-1 cell line, and the number of dead cells was measured using the Incucyte live-cell imaging device with Cytotox Dye (green). Fluorescence was monitored for 24 h. (B) Measurement of the cytotoxicity of the TAT-Pep peptide on CLL-B cells from patients. Increased concentrations (0 to 30 µM) of TAT-Pep were incubated with CLL-B cells, and the number of dead cells was measured using the Incucyte live-cell imaging device with Cytotox Dye (green). Fluorescence was monitored for 48 h. […] In all analyses, the ‘Green Object Count/Phase Object Count’ ratio was determined using the Incucyte analysis software to obtain the percentage of dead cells. The area under the curve for each condition was then calculated, and they were compared using a t-test. […]
Cell viability and survival were monitored using the IncucyteS3 system (Sartorius), a live-cell imaging device enabling the tracking of fluorescence over set periods of time[41],[42]. […] The area under the curve for each condition was then calculated, and they were compared using a t-test. […]

NTSR2/TRKB interaction, sequence (Q16620 32-822): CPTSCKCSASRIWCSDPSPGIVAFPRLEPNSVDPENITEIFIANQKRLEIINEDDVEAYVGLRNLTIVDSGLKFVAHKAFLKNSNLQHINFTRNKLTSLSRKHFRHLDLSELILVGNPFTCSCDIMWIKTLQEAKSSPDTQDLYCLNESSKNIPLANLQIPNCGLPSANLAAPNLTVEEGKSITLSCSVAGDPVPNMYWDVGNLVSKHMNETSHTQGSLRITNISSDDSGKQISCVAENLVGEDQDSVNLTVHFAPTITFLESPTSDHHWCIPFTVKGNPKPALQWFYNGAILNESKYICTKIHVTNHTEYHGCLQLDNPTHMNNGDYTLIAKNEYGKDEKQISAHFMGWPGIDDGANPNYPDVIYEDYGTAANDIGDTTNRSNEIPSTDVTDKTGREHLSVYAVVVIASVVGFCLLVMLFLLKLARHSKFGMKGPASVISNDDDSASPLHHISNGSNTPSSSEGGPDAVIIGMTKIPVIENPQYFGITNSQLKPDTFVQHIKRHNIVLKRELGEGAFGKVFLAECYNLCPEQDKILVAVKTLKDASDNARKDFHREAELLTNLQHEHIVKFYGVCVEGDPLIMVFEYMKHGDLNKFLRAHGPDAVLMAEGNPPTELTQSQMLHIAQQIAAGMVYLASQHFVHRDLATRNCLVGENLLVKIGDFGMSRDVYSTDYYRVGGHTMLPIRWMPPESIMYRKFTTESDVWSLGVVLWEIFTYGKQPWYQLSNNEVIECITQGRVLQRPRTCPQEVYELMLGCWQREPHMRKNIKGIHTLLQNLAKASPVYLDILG

GRKKRRQRRRPPQNAVSSSFRKLFLEAVSSLCGEHHPMKRLPPKPQSPTLMDTASGFGDPPETRT [TAT-Pep]
PLA red fluorescence spots (proximity of NTSR2 and TRKB), in words [1]: dramatically reduced
level of anti-apoptotic protein BCL-2 (in words) [2]: decrease
IC50 [3]: 10 µM
